In test [1] the target is T1, human CGRP receptor (SK-N-MC cells) (Homo sapiens, UniProt O60894+Q16602).
T1 construct: SK-N-MC cells that endogenously express the human CGRP receptor; endogenous in cells; host or cells: SK-N-MC cells
The test can be described thus: Schild analysis of CGRP stimulated cAMP production. The settings on record: for slope: Schild plot slope. In kind it is cell-based. The protocol:
Functional Antagonism. Antagonism of the compounds of invention was determined by measuring the formation of cyclic AMP (adenosine 3′5′-cyclic monophosphate) in SK-N-MC cells that endogenously express the human CGRP receptor. CGRP receptor complex is coupled with Gs protein and CGRP binding to this complex leads to the cyclic AMP production via Gs—dependent activation of an adenylate cyclase (Juaneda C et al., TiPS, 2000; 21:432-438; incorporated by reference herein). Consequently, CGRP receptor antagonists inhibit CGRP-induced cyclic AMP formation in SK-N-MC cells (Doods H et al., Br J Pharmacol, 2000; 129(3):420-423); incorporated by reference herein). For cyclic AMP measurements SK-N-MC cells were incubated with 0.3 nM CGRP alone or in the presence of various concentrations of the compounds of invention for 30 min at room temperature. Compounds of invention were pre-incubated with SK-N-MC cells for 15 min before the addition of CGRP to allow receptor occupancy (Edvinsson et al., Eur J Pharmacol, 2001, 415:39-44; incorporated by reference herein). Cyclic AMP was extracted using the lysis reagent and its concentration was determined by radioimmunoassay using RPA559 cAMP SPA Direct Screening Assay Kit (Amersham Pharmacia Biotech). IC50 values were calculated using Excel fit.
Schild Analysis. Schild analysis can be used to characterize the nature of antagonism of the compounds of invention. The dose response of CGRP stimulated cAMP production was generated either with CGRP alone, or in the presence of various concentrations of compounds of invention. The antagonist dose is plotted as X against the dose ratio (defined as IC50 of agonist with the presence of the compounds divided by the IC50 of the agonist alone) minus 1 as Y. Linear regression was then performed with both X and Y axis log-transformed. […] Kb is the dissociation constant of the antagonist.

Test [2] relates to human cerebral vessels (CGRP-induced dilation). Kind of test: Ex Vivo Human Cerebral Artery Assay, reversal of CGRP-induced relaxation. The settings on record: reversal of 1 nM hCGRP-induced relaxation, vessels pre-contracted with 10 mM KCl. The text has this: Rationale and Overview. To provided direct evidence of the ability for novel compounds to reverse CGRP-induced dilation in human cerebral vessels, an ex vivo assay was design. Briefly, isolated vessel rings were mounted in a tissue bath where vessels were pre-contracted with potassium chloride (KCl) and fully dilated with hCGRP, then this relaxation was reversed by the cumulative addition of CGRP-receptor antagonists (complete details follow).
Tissue Samples. Autopsy samples of human arteries were obtained from vendors (ABS Inc. or NDRI). All vessels were transported on ice-cold HEPES buffer (composition in mM: NaCl 130, KCl 4, KH2PO4 1.2, MgSO4 1.2, CaCl2 1.8, Glucose 6, NaHCO3 4, HEPES 10, EDTA 0.025). Upon receipt, the vessels were placed in cold Kreb's buffer (composition in mM: NaCl 118.4, KCl 4.7, KH2PO4 1.2, MgSO4 1.2, CaCl2 1.8, Glucose 10.1, NaHCO3 25) saturated with carbogen (5% CO2 and 95% oxygen).
Isolated Tissue Baths. The vessels were cleaned of connective tissues and cut into cylindrical segments of 4-5 mm in length. The vessels were then mounted in tissue baths between two stainless steel hooks; one of which is fixed and the other of which was connected to a force displacement transducer. The vessel tension was continuously recorded using a data acquisition system (Powerlab, ADInstruments, Mountain View, Calif.) connected to the transducer. The tissue baths containing Krebs buffer and mounted vessels were temperature (37° C.) and pH (7.4) controlled with continuous bubbling of carbogen. The artery segments were allowed to equilibrate for about 30-45 min until a stable resting tone was achieved. Prior to the assay, vessels were primed (conditioned) with 100 mM KCl and subsequently washed. The vessels were pre-contracted with 10 mM KCl and fully dilated with 1 nM hCGRP. Concentration-response curves to CGRP-receptor antagonists were performed by the cumulative addition of drugs in half log units in fully dilated vessels. At each concentration, the effects of the drugs were expressed as % reversal of CGRP-induced relaxation in each vessel. The actual assay and data analysis were performed for each vessel individually, fitting the concentration-response data to a four parameter logistic function by non-linear regression analysis, to estimate the EC50 values.

Test [3] relates to CGRP-induced increase in laser Doppler facial blood flow. Kind of test: Non-terminal laser Doppler facial blood flow model in non-human primate. The settings on record: for % Inhibition of CGRP-induced increase in laser Doppler facial blood flow: 1 mg/kg, iv, CGRP 10 μg/kg. In kind it is in vivo, common marmoset (Callithrix jacchus). The text has this:
Overview. […] Non-human primates (e.g., marmosets) are the only animals known to have human-like CGRP receptor pharmacology conferred by the presence of the specific amino acid residue (Trp74) in their RAMP1 sequence which is responsible for the phenotype of the human receptor (Mallee et al. J Biol Chem 2002 277:14294). […] Peptide and small-molecule CGRP-receptor antagonists were used to validate the non-human primate model.
Animals. Adult male and female common marmosets (Callithrix jacchus) purchased from Harlan and weighing 350-550 g served as subjects. Other mammals endogenously expressing RAMP1 having Trp 74 or transgenic mammals with humanized RAMP1 having Trp 74 can also be employed in A compound described herein.
Anesthesia & Surgical Preparation. Animals are anesthetized by isoflurane inhalation in an induction chamber (4-5% rapid induction, maintained with 1-2.5%; Solomon et al., 1999). Anesthesia is maintained by delivering a constant supply of air:oxygen (50:50) and isoflurane via face mask, or by intubation and ventilation (with blood gas monitoring). Body temperature is maintained at 38±0.5° C. by placement on an automated temperature controlled surface with rectal probe. A small area of fur (approx. 1.5 cm square) is removed from one or both sides of the face by application of a depilatory cream and/or shaving. Surgical areas are clipped and prepared with betadine. An i.v. line is placed in any accessible vein for the administration of test compounds and CGRP-receptor agonist and, if needed, withdrawal of blood samples (max 2.5 ml, 10%) for blood gas monitoring and content analysis. A solution of 5% dextrose is administered i.v. in order to maintain blood sugar levels. Anesthesia depth is monitored by measuring blood pressure and heart rate using a non-invasive arm cuff method and a pulse oximeter, respectively. Guanethidine 5-10 mg/kg i.v., supplemented with 5 mg/kg i.v. as needed, may be given to stabilize the peak flux in facial blood flow seen with repeated stimulation-induced changes in blood flow (Escott et al., 1999; incorporated by reference herein). Microvascular blood flow is monitored by attaching a self adhesive laser Doppler flow probe to the facial skin.
Compound Administration Test compounds may be administered i.v. (0.01-5 ml/kg), i.m. (0.01-0.5 ml/kg), s.c. (0.01-5 ml/kg) or p.o. (0.1-10 ml/kg) (Diehl et al., 2001; incorporated by reference herein). CGRP-receptor agonists may be delivered i.v. (0.01-5 ml/kg), i.d. (10-100 μl/site) or s.c. (10-100 μl/site).

The target in test [4] is T2, CGRP receptor (SK-N-MC cell membranes) (Homo sapiens, UniProt O60894+Q16602).
T2 construct: endogenous in cells; host or cells: SK-N-MC cells (membrane homogenate)
The test can be described thus: CGRP Binding Assay ([125I]-CGRP radioligand binding, SK-N-MC homogenate). The settings on record: displacement of [125I]-CGRP, SK-N-MC homogenate; read-out: CGRP binding IC50. In general terms: Displacement assays read how much labelled ligand stays bound in the presence of the test substance.

Test [5] addresses T1, human CGRP receptor (SK-N-MC cells). Kind of test: Cyclic AMP Assay, functional antagonism of CGRP-induced cyclic AMP formation. The class given is cell-based. Summed up:
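SK-N-MC cells, which endogenously express human CGRP receptor, stimulated with 0.3 nM CGRP with or without compound for 30 min at room temperature. Cellular cAMP extracted by lysis and quantified by SPA radioimmunoassay; IC50 from inhibition of CGRP-induced cAMP.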

[6] abbreviates: SK-N-MC cells, 0.3 nM CGRP, read-out: cAMP Function IC50.
The mark [7] stands for this setting: Schild analysis, dissociation constant of the antagonist, read-out: Kb.

Read-outs that look alike come from different tables or passages of the source.

T1 sequence (Q16602 23-461): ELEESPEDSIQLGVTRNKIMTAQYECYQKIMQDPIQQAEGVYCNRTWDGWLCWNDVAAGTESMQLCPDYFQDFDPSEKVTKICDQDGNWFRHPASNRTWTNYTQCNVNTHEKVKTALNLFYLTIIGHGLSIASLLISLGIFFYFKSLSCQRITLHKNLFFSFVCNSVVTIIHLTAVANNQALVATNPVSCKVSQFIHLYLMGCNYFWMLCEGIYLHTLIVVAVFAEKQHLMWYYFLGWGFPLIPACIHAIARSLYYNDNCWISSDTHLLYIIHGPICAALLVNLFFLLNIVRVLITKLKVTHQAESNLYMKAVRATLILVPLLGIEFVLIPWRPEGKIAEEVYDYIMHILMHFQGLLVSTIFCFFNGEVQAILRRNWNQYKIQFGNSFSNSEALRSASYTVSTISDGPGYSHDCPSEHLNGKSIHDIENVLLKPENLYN
T1 sequence (O60894 27-148): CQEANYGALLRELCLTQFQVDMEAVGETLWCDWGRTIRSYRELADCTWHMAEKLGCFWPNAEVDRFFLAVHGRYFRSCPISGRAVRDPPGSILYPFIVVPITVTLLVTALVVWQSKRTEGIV
T2 sequence (Q16602 23-461): as the sequence (Q16602 23-461) above
T2 sequence (O60894 27-148): as the sequence (O60894 27-148) above

Take `O=C(NC(Cc1ccc2[nH]ncc2c1)C(=O)N1CCC(N2CCCCC2)CC1)N1CCC(N2Cc3ccccc3NC2=O)CC1` (racemic) [Example 6, (±)-4-(2-Oxo-1,4-dihydro-2H-quinazolin-3-yl)-piperidine-1-carboxylic acid[2-[1,4′]bipiperidinyl-1′-yl-1-(1H-indazol-5-ylmethyl)-2-oxo-ethyl]-amide]: the slope in test [1] came to 0.93. Further, in test [2], the EC50 was < 10 nM. Further, in test [3], the “% Inhibition of CGRP-induced increase in laser Doppler facial blood flow” value is on record as “Z (Z>75%)”.
Take `Cc1cc(CC(NC(=O)N2CCC(N3Cc4ccccc4NC3=O)CC2)C(=O)N2CCCCC2)cc2cn[nH]c12` (racemic) [Example 17, (±)-4-(2-Oxo-1,4-dihydro-2H-quinazolin-3-yl)-piperidine-1-carboxylic acid[1-(7-methyl-1H-indazol-5-ylmethyl)-2-oxo-2-piperidin-1-yl-ethyl]-amide]: the IC50 in test [4] and in test [5] (setting [6]) was < 10 nM in each case. Also, the Kb in test [1] (setting [7]) is 1.1 nM. In addition, in test [1], the slope was determined as 0.92. For the same compound, the EC50 in test [2] was < 10 nM.
`Cc1cc(CC(NC(=O)N2CCC(N3Cc4ccccc4NC3=O)CC2)C(=O)N(C)C)cc2cn[nH]c12` (racemic) [Example 18, (±)-4-(2-Oxo-1,4-dihydro-2H-quinazolin-3-yl)-piperidine-1-carboxylic acid[1-dimethylcarbamoyl-2-(7-methyl-1H-indazol-5-yl)-ethyl]-amide]: the IC50 is < 10 nM in test [4] and 10 to 100 nM in test [5] (setting [6]). Further, the Kb in test [1] (setting [7]) was 1 nM. In test [1], the slope turned out to be 0.8. Further, in test [2], the EC50 was < 10 nM.
Regarding `Cc1cc(CC(NC(=O)N2CCC(N3Cc4ccccc4NC3=O)CC2)C(=O)N2CCN(c3ccncc3)CC2)cc2cn[nH]c12` (racemic) [Example 21, (±)-4-(2-Oxo-1,4-dihydro-2H-quinazolin-3-yl)-piperidine-1-carboxylic acid[1-(7-methyl-1H-indazol-5-ylmethyl)-2-oxo-2-(4-pyridin-4-yl-piperazin-1-yl)-ethyl]-amide], the IC50 in test [4] and in test [5] (setting [6]) was < 10 nM in each case. Moreover, the Kb in test [1] (setting [7]) is 0.018 nM. This compound returned a slope in test [1] of 0.89. For the same compound, the concentration giving a half-maximal response (EC50) in test [2] is < 10 nM.
For the compound `O=C(NC(Cc1cc(Cl)c2[nH]ncc2c1)C(=O)N1CCC(N2CCCCC2)CC1)N1CCC(N2Cc3ccccc3NC2=O)CC1` (racemic) [Example 43, (±)-4-(2-Oxo-1,4-dihydro-2H-quinazolin-3-yl)-piperidine-1-carboxylic acid[2-[1,4′]bipiperidinyl-1′-yl-1-(7-chloro-1H-indazol-5-ylmethyl)-2-oxo-ethyl]-amide], the IC50 in test [4] and in test [5] (setting [6]) was < 10 nM throughout. Also, the Kb in test [1] (setting [7]) amounted to 0.018 nM. The same compound yielded a slope in test [1] of 1.2. Further, the EC50 in test [2] is < 10 nM.
Turning to `Cc1cc(CC(CC(=O)N2CCC(N3Cc4ccccc4NC3=O)CC2)C(=O)N2CCC3(CC2)OCCO3)cc2cn[nH]c12` (racemic) [Example 70, (±)-1-(1,4-Dioxa-8-aza-spiro[4.5]dec-8-yl)-2-(7-methyl-1H-indazol-5-ylmethyl)-4-[4-(2-oxo-1,4-dihydro-2H-quinazolin-3-yl)-piperidin-1-yl]-butane-1,4-dione], the IC50 in test [4] and in test [5] was < 10 nM each time. For the same compound, the slope in test [1] is recorded as 0.71. For the same compound, in test [2], the EC50 was < 10 nM.
As for `Cc1cc(CC(CC(=O)N2CCC3(CC2)OC(=O)Nc2ccccc23)C(=O)N2CCC3(CC2)OCCO3)cc2cn[nH]c12` (racemic) [Example 71, (±)-1-(1,4-Dioxa-8-aza-spiro[4.5]dec-8-yl)-2-(7-methyl-1H-indazol-5-ylmethyl)-4-[1′,2′-dihydro-2′-oxospiro-[4H-3′,1-benzoxazine-4,4′-piperidinyl]-butane-1,4-dione], the IC50 in test [4] and in test [5] was < 10 nM in each case. The compound further had a Kb in test [1] of 2 nM. The slope in test [1] was determined as 0.87. In addition, in test [2], the EC50 was < 10 nM.
Turning to `O=C(N[C@H](Cc1ccc2[nH]c(=O)oc2c1)C(=O)N1CCC(N2CCCCC2)CC1)N1CCC(N2Cc3ccccc3NC2=O)CC1` [Example 47, (R)-4-(2-Oxo-1,4-dihydro-2H-quinazolin-3-yl)-piperidine-1-carboxylic acid[2-[1,4′]bipiperidinyl-1′-yl-2-oxo-1-(2-oxo-2,3-dihydro-benzooxazol-6-ylmethyl)-ethyl]-amide], the IC50 in test [4] and in test [5] (setting [6]) was < 10 nM each time. Further, the Kb in test [1] (setting [7]) worked out at 0.1 nM. For the same compound, the slope in test [1] is 0.93. Also, the EC50 in test [2] is < 10 nM.
For “hαCGRP(8-37): "the peptide antagonist hαCGRP(8-37)" [reference compound]”, the “% Inhibition of CGRP-induced increase in laser Doppler facial blood flow” value in test [3] is recorded as “Z (Z>75%)”. Besides, the “inhibition of CGRP-induced increase in laser Doppler facial blood flow (in words)” value in test [3] (delivered prior to hαCGRP (pre-treatment)) was “dose-dependently inhibited”.

Usually EC50 stands for the concentration giving half of the maximal effect. As usually defined, the IC50 is the concentration at which inhibition is half-maximal.
